Experimental data taken from US11236087B2, “Highly active pyrazolo-piperidine substituted indole-2-carboxamides active against the hepatitis B virus (HBV)” (AiCuris GmbH & Co. KG, priority 2017, dated 2022).

Experiments:
[1] = Cell viability assay (AlamarBlue) in HepAD38 cells; conditions: human
HBV = assay: Determination of HBV DNA from the supernatants of HepAD38 cells (anti-HBV activity); type: cell-based, hepatitis B virus; conditions: Hepatitis B virus, 144 h; HBV DNA in HepAD38 supernatant, day 6, qPCR; read-out: Cell Activity (EC50)
In short: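 HepAD38 cells, tetracycline withdrawn to induce HBV, treated with serial half-log compound dilutions; on day 6 HBV DNA purified from filtered supernatant and quantified by real-time PCR against HBV plasmid standards; EC50 from relative copy numbers by non-linear regression, three experiments in triplicate.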

HBV core protein = molecular target: T1, HBV core protein (UniProt P03146); assay: Biochemical capsid assembly assay (fluorescence quenching); parameters: species or system hepatitis B virus; conditions: read-out: Assembly Activity (IC50); BODIPY-FL labelled core protein, 300 μM NaCl, read 6 min after start
T1 construct: fused on or other part: BODIPY-FL maleimide label on the C-terminal Cys150
T1 sequence (P03146 whole entry, looked up, the tested form may be a part): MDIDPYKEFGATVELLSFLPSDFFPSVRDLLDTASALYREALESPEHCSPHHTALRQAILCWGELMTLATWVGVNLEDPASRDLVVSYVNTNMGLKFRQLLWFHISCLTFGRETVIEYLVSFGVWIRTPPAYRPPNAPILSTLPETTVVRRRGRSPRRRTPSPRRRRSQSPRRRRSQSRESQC
In short: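 Purified E. coli-expressed HBV core protein (aa 1-149 plus Cys150), BODIPY-FL maleimide-labelled, at 1.0-2.0 μM in 50 mM HEPES pH 7.5 with 0.5% DMSO was used. Compounds were tested at 8 concentrations (0.5-log dilutions from 100, 31.6 or 10 μM). Assembly was started with NaCl ([…]), and fluorescence quenching was read after 6 min (ex 477/em 525 nm). EC50 was determined by non-linear regression.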

SMILES | CC50 at 6 days [1] [µM] | EC50 (HBV) [µM] | IC50 (HBV core protein) [µM]
CCc1cc(F)cc2[nH]c(C(=O)N3CCc4[nH]nc(C(=O)N(C)C5(COC)CC5)c4C3)cc12 [Example 272, 5-(4-ethyl-6-fluoro-1H-indole-2-carbonyl)-N-[1-(methoxymethyl)cyclopropyl]-N-methyl-1H,4H,5H,6H,7H-pyrazolo[4,3-c]pyridine-3-carboxamide] | > 10 | < 1 | < 5
O=C(c1cc2ccccc2[nH]1)N1CCc2[nH]nc(C(=O)N3C[C@H]4CCO[C@H]4C3)c2C1 [Example 152, 2-{3-[(3aR,6aR)-hexahydro-2H-furo[2,3-c]pyrrole-5-carbonyl]-1H,4H,5H,6H,7H-pyrazolo[4,3-c]pyridine-5-carbonyl}-1H-indole] | > 10 | 1 to 25 | < 100
Cc1cc(F)cc2[nH]c(C(=O)N3CCc4n[nH]c(C(=O)N(C)C5CC5)c4C3)cc12 [Example 327, N-cyclopropyl-5-(6-fluoro-4-methyl-1H-indole-2-carbonyl)-N-methyl-2H,4H,5H,6H,7H-pyrazolo[4,3-c]pyridine-3-carboxamide] | > 10 | < 1 | < 5
CN(CCO)C(=O)c1n[nH]c2c1CN(C(=O)c1cc3c(Br)cccc3[nH]1)CC2 [Example 30, 5-(4-bromo-1H-indole-2-carbonyl)-N-(2-hydroxyethyl)-N-methyl-1H,4H,5H,6H,7H-pyrazolo[4,3-c]pyridine-3-carboxamide] | > 10 | < 1 | < 5
O=C(c1cc2ccccc2[nH]1)N1CCc2[nH]nc(OC3CCCC3)c2C1 [Example 203, 2-[3-(cyclopentyloxy)-1H,4H,5H,6H,7H-pyrazolo[4,3-c]pyridine-5-carbonyl]-1H-indole] | > 10 | < 1 | 5 to 10
CN(C(=O)c1n[nH]c2c1CN(C(=O)c1cc3ccccc3[nH]1)CC2)[C@H]1CC[C@@H](O)CC1 [Example 174, 5-(1H-indole-2-carbonyl)-N-methyl-N-[(1s,4s)-4-hydroxycyclohexyl]-1H,4H,5H,6H,7H-pyrazolo[4,3-c]pyridine-3-carboxamide] | > 10 | 1 to 25 | < 100
CN(CCO)C(=O)c1n[nH]c2c1CN(C(=O)c1cc3c(Cl)c(F)ccc3[nH]1)CC2 [Example 51, 5-(4-chloro-5-fluoro-1H-indole-2-carbonyl)-N-(2-hydroxyethyl)-N-methyl-1H,4H,5H,6H,7H-pyrazolo[4,3-c]pyridine-3-carboxamide] | > 100 | < 1 | < 5
CON(C)C(=O)c1n[nH]c2c1CN(C(=O)c1cc3c(C)cccc3[nH]1)CC2 [Example 131, N-methoxy-N-methyl-5-(4-methyl-1H-indole-2-carbonyl)-1H,4H,5H,6H,7H-pyrazolo[4,3-c]pyridine-3-carboxamide] | > 100 | < 1 | < 5
CN(CCO)C(=O)c1n[nH]c2c1CN(C(=O)c1cc3c(C(C)(F)F)cc(F)cc3[nH]1)CC2 [Example 27, 5-[4-(1,1-difluoroethyl)-6-fluoro-1H-indole-2-carbonyl]-N-(2-hydroxyethyl)-N-methyl-1H,4H,5H,6H,7H-pyrazolo[4,3-c]pyridine-3-carboxamide] | > 10 | < 1 | < 5
COCC1(N(CC(F)F)C(=O)c2n[nH]c3c2CN(C(=O)c2cc4ccccc4[nH]2)CC3)CC1 [Example 303, N-(2,2-difluoroethyl)-5-(1H-indole-2-carbonyl)-N-[1-(methoxymethyl)cyclopropyl]-1H,4H,5H,6H,7H-pyrazolo[4,3-c]pyridine-3-carboxamide] | > 10 | < 1 | < 5
O=C(c1cc2ccccc2[nH]1)N1CCc2[nH]nc(NCc3ccccc3)c2C1 [Example 91, N-benzyl-5-(1H-indole-2-carbonyl)-1H,4H,5H,6H,7H-pyrazolo[4,3-c]pyridin-3-amine] | > 100 | 1 to 25 | 5 to 10
O=C(c1cc2ccccc2[nH]1)N1CCc2[nH]nc(C(=O)N3CCSCC3)c2C1 [Example 159, 2-[3-(thiomorpholine-4-carbonyl)-1H,4H,5H,6H,7H-pyrazolo[4,3-c]pyridine-5-carbonyl]-1H-indole] | > 10 | < 1 | < 5
O=C(c1cc2ccccc2[nH]1)N1CCc2[nH]nc(C(=O)N3CC(CCO)C3)c2C1 [Example 44, 2-{1-[5-(1H-indole-2-carbonyl)-1H,4H,5H,6H,7H-pyrazolo[4,3-c]pyridine-3-carbonyl]azetidin-3-yl}ethan-1-ol] | > 100 | 1 to 25 | < 100
COCC1(N(C(=O)c2n[nH]c3c2CN(C(=O)c2cc4ccccc4[nH]2)CC3)C(C)C)CC1 [Example 304, 5-(1H-indole-2-carbonyl)-N-[1-(methoxymethyl)cyclopropyl]-N-(propan-2-yl)-1H,4H,5H,6H,7H-pyrazolo[4,3-c]pyridine-3-carboxamide] | > 10 | < 1 | < 5
O=C(c1cc2ccccc2[nH]1)N1CCc2[nH]nc(C(=O)N3CC(CO)C3)c2C1 [Example 45, {1-[5-(1H-indole-2-carbonyl)-1H,4H,5H,6H,7H-pyrazolo[4,3-c]pyridine-3-carbonyl]azetidin-3-yl}methanol] | > 100 | 1 to 25 | < 100
CC1Cc2[nH]nc(-c3cscn3)c2CN1C(=O)c1cc2ccccc2[nH]1 (stereo not drawn) [Example 38, 2-[6-methyl-3-(1,3-thiazol-4-yl)-1H,4H,5H,6H,7H-pyrazolo[4,3-c]pyridine-5-carbonyl]-1H-indole] | 100 | < 1 | < 5
O=C(c1cc2ccccc2[nH]1)N1CCc2[nH]nc(C(=O)N3CCCC34CC4)c2C1 [Example 184, 2-(3-{4-azaspiro[2.4]heptane-4-carbonyl}-1H,4H,5H,6H,7H-pyrazolo[4,3-c]pyridine-5-carbonyl)-1H-indole] | > 10 | < 1 | < 5
CC(=O)N1CCN(C(=O)c2n[nH]c3c2CN(C(=O)c2cc4ccccc4[nH]2)CC3)C(C)(C)C1 [Example 163, 1-{4-[5-(1H-indole-2-carbonyl)-1H,4H,5H,6H,7H-pyrazolo[4,3-c]pyridine-3-carbonyl]-3,3-dimethylpiperazin-1-yl}ethan-1-one] | > 10 | 1 to 25 | < 100
O=C(c1cc2ccccc2[nH]1)N1CCc2[nH]nc(C(=O)N3CCOCC3)c2C1 [Example 108, 2-[3-(morpholine-4-carbonyl)-1H,4H,5H,6H,7H-pyrazolo[4,3-c]pyridine-5-carbonyl]-1H-indole] | > 100 | 1 to 25 | < 100
O=C(c1cc2ccccc2[nH]1)N1CCc2[nH]nc(C(=O)N3CC[C@H](O)C3)c2C1 [Example 157, (3S)-1-[5-(1H-indole-2-carbonyl)-1H,4H,5H,6H,7H-pyrazolo[4,3-c]pyridine-3-carbonyl]pyrrolidin-3-ol] | > 10 | 1 to 25 | < 100
O=C(c1cc2ccccc2[nH]1)N1CCc2[nH]nc(-c3cscn3)c2C1 [Example 47, 2-[3-(1,3-thiazol-4-yl)-1H,4H,5H,6H,7H-pyrazolo[4,3-c]pyridine-5-carbonyl]-1H-indole] | > 100 | < 1 | < 5
